Laboratory results from patent US20260001928A1 (CORTERIA PHARMACEUTICALS, priority 2022, published 2026).
*1 amine or outer side, *2 acyl side, *3 side chain or, on linkers, in order; H or OH if unused. Where a SMILES comes first, the peptide text is derived from it. Side-chain parts run from the residue outwards. [ ]: non-standard residue; d: D form. The star is where a group is joined. C18 diacid = O=C(O)CCCCCCCCCCCCCCCCC(=O)*; C16 diacid = O=C(O)CCCCCCCCCCCCCCC(=O)*; γGlu = O=C(O)[C@H](CCC(=O)[*:2])N[*:1]; NMeI = CC[C@H](C)[C@H](NC)C(=O)O; αMeL = CC(C)C[C@](C)(N)C(=O)O; Dap = NC[C@H](N)C(=O)O; AEEA = NCCOCCOCC(=O)O; Aib = CC(C)(N)C(=O)O

Experiments:
CFR1R receptor = target: T1, CFR1R receptor (Homo sapiens, UniProt P34998); experiment: Activity at anti-target CFR1R receptor, cAMP assay in CRF1R-overexpression CHO-K1 cells; assay type: cell-based; conditions: 100% = Sauvagine at 100 nM; for EC50: cAMP
T1 construct: host or cells: CHO-K1 (clone 2)
T1 sequence (P34998 24-415): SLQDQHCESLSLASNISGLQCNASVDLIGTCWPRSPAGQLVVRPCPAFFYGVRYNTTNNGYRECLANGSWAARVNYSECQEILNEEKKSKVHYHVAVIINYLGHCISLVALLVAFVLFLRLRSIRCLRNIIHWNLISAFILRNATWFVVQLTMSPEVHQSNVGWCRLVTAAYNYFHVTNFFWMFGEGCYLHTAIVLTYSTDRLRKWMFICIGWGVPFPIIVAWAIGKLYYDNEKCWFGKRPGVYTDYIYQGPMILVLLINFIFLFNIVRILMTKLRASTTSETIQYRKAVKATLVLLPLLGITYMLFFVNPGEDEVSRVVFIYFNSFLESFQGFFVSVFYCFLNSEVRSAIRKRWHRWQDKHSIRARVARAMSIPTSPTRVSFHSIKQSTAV
Procedure, shortened: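 Clone 2 cells were cultured in F12 (Hams)/10% FBS/400 μg/ml G418 at 37° C./5% CO2, frozen in medium with 10% DMSO, and thawed vials used. The protocol followed the TeloHAEC procedure, with 4000 cells/well final and Sauvagine at 100 nM defining 100% activation.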

Sprague Dawley rats = experiment: Effect on systolic blood pressure, telemetry in Sprague Dawley rats; assay type: in vivo, rat; conditions: 0.1 mg/kg SC; for Systolic blood pressure (Mean) % change from baseline, 8 h / Systolic blood pressure (Mean) % change from baseline, 12 h / Systolic blood pressure (Mean) % change from baseline, 24 h: n=2; for Duration of action: last time point with an effect on BP still observed
Procedure, shortened: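 Sprague Dawley rats with abdominal-aorta telemetry catheters, recovered ≥10 days, received 0.1 mg/kg SC of compound or vehicle. Systolic pressure recorded 1 h pre-dose as baseline, then continuously up to 48 hours, expressed as % change from baseline; duration of action is last time point with a BP effect (n=2).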

[1] = Chemical stability in buffer (pH 7.4 / pH 4.5), % purity loss; assay type: physicochemical; conditions: 40° C. vs 5° C., 14 or 28 days; for Buffer stability pH 4.5 % purity loss: 100 mM acetate buffer pH 4.5; for Buffer stability pH 7.4 % purity loss: 100 mM phosphate buffer pH 7.4
Experimental: Solubility and chemical stability were studied in 100 mM phosphate buffer (pH 7.4) and 100 mM acetate buffer (pH 4.5). Test compound powders were dissolved in both buffers at a target concentration of 10 mg/mL and incubated for 1 hour at room temperature. After centrifugation at 2500 rcf for 15 minutes, 10 μL of supernatant was diluted with 190 μL of the incubation buffer and analyzed by LC-UV (Acquity UPLC-DAD, Waters). Solubility was calculated by comparing the peak area of the test compound in the buffer sample with the peak area of the same compound dissolved at 0.5 mg/mL in water:acetonitrile 1:1, 0.1% formic acid.
From the centrifuged supernatant, two additional 80 μL aliquots were collected and diluted with 160 μL of incubation buffer. One aliquot was stored at 5° C., while the other was stored at 40° C. After 14 or 28 days, the samples were analyzed by LC-UV. Chemical stability was calculated as % loss using the following equations: […]

human CRF2a receptor = target: T2, human CRF2a receptor (Homo sapiens, UniProt Q13324); experiment: Activity at human CRF2a receptor, cAMP functional assay in TeloHEAC cells; assay type: cell-based; conditions: TeloHEAC cells stably expressing human CRF2a receptor, relative to urocortin 2 (100 nM = 100%)
T2 construct: expressed in transfected cells; host or cells: TeloHEAC cells
T2 sequence (Q13324 1-411): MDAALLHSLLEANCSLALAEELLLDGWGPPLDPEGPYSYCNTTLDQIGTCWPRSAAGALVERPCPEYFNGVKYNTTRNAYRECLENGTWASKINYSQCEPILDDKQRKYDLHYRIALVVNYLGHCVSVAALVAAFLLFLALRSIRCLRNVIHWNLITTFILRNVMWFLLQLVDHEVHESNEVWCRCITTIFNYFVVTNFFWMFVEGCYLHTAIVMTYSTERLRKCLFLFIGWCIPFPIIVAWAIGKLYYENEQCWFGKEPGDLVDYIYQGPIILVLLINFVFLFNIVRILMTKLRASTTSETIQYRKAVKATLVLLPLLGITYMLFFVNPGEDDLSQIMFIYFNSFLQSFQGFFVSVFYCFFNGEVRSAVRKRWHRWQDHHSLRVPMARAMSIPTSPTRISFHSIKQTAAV
Procedure, shortened: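 TeloHEAC cells stably expressing human CRF2a (10000 cells/well, suspended in HBSS/20 mM HEPES with 2 mM IBMX) were exposed to compounds for 30 min at 37 °C. cAMP was read as the 665/620 nm fluorescence ratio after 1 h at room temperature. EC50 was derived relative to 100 nM urocortin 2, set as 100%.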

| Compound | Emax (% I) (CFR1R receptor) | EC50 (CFR1R receptor) [nM] | Systolic blood pressure (Mean) % change from baseline, 8 h (Sprague Dawley rats) [%] | Systolic blood pressure (Mean) % change from baseline, 12 h (Sprague Dawley rats) [%] | Systolic blood pressure (Mean) % change from baseline, 24 h (Sprague Dawley rats) [%] | Duration of action (Sprague Dawley rats) [h] | Buffer stability pH 4.5 % purity loss [1] [%] | Buffer stability pH 7.4 % purity loss [1] | EC50 (human CRF2a receptor) [nM] |
| --- | --- | --- | --- | --- | --- | --- | --- | --- | --- |
| CC[C@H](C)[C@H](NC(C)=O)C(=O)N[C@H](C(=O)N[C@@H](CC(C)C)C(=O)N[C@@H](CO)C(=O)N[C@@H](CC(C)C)C(=O)N[C@@H](CC(=O)O)C(=O)N[C@@H](C(=O)N1CCC[C@H]1C(=O)N[C@H](C(=O)N[C@@H](CCCCN)C(=O)N[C@@H](CC(C)C)C(=O)N[C@@H](CCCCNC(=O)CC[C@H](NC(=O)CCCCCCCCCCCCCCC(=O)O)C(=O)O)C(=O)N[C@@H](CCCCN)C(=O)N[C@H](C(=O)N[C@@H](CC(C)C)C(=O)N[C@@H](CC(C)C)C(=O)N[C@@H](CCC(=O)O)C(=O)N[C@@H](CCC(N)=O)C(=O)N[C@@H](CCC(=O)O)C(=O)N[C@@H](CCCCN)C(=O)N[C@@H](CCC(N)=O)C(=O)N[C@@H](CCCCN)C(=O)N[C@@H](CCCCN)C(=O)N[C@@H](CCC(N)=O)C(=O)N[C@@H](CCCNC(=N)N)C(=O)N[C@@H](CCC(=O)O)C(=O)N[C@@H](CCC(N)=O)C(=O)N[C@@H](C)C(=O)N[C@@H](CCC(=O)O)C(=O)N[C@H](C(=O)N[C@@H](CC(N)=O)C(=O)N[C@@H](CN)C(=O)N[C@@H](CCC(N)=O)C(=O)N[C@H](C(=O)N[C@@H](CC(C)C)C(=O)N[C@@H](C)C(=O)N[C@@H](CCC(N)=O)C(=O)N[C@H](C(N)=O)C(C)C)[C@@H](C)CC)[C@@H](C)O)[C@@H](C)CC)[C@@H](C)CC)C(C)C)C(C)C [compound 55] (Ac-IVLSLD[dV]PIKLK([γGlu-C16 diacid])KILLEQEKQKKQREQAETN[Dap]QILAQV-NH2) | 5 | > 250 | −31 | −23 | 0 | 23 | 28.9 | 73.5% | 0.42 |
| CC[C@H](C)[C@H](NC(C)=O)C(=O)N[C@H](C(=O)N[C@@H](CC(C)C)C(=O)N[C@@H](CO)C(=O)N[C@@H](CC(C)C)C(=O)N[C@@H](CC(=O)O)C(=O)N[C@H](C(=O)N1CCC[C@H]1C(=O)N[C@H](C(=O)N[C@@H](CCCCN)C(=O)N[C@@](C)(CC(C)C)C(=O)N[C@@H](CCCCNC(=O)CC[C@H](NC(=O)CCCCCCCCCCCCCCC(=O)O)C(=O)O)C(=O)N[C@@H](CCCCN)C(=O)N[C@H](C(=O)N[C@@H](CC(C)C)C(=O)N[C@@H](CC(C)C)C(=O)N[C@@H](CCC(=O)O)C(=O)N[C@@H](CCC(N)=O)C(=O)N[C@@H](CCC(=O)O)C(=O)N[C@@H](CCCCN)C(=O)N[C@@H](CCC(N)=O)C(=O)N[C@@H](CCCCN)C(=O)N[C@@H](CCCCN)C(=O)N[C@@H](CCC(N)=O)C(=O)N[C@@H](CCCNC(=N)N)C(=O)N[C@@H](CCC(=O)O)C(=O)N[C@@H](CCC(N)=O)C(=O)N[C@@H](C)C(=O)N[C@@H](CCC(=O)O)C(=O)N[C@H](C(=O)N[C@@H](CC(N)=O)C(=O)NC(C)(C)C(=O)N[C@@H](CCC(N)=O)C(=O)N[C@H](C(=O)N[C@@H](CC(C)C)C(=O)N[C@@H](C)C(=O)N[C@@H](CCC(N)=O)C(=O)N[C@H](C(N)=O)C(C)C)[C@@H](C)CC)[C@@H](C)O)[C@@H](C)CC)[C@@H](C)CC)C(C)C)C(C)C [compound 43] (Ac-IVLSLDVPIK[αMeL]K([γGlu-C16 diacid])KILLEQEKQKKQREQAETN[Aib]QILAQV-NH2) | 1 | > 250 | −18 | −1 | 13 | 12 |  | 0/nd ^ % | 0.3 |
| CC[C@H](C)[C@H](NC)C(=O)N[C@H](C(=O)N[C@@H](CC(C)C)C(=O)N[C@@H](CO)C(=O)N[C@@H](CC(C)C)C(=O)N[C@@H](CC(=O)O)C(=O)N[C@@H](C(=O)N1CCC[C@H]1C(=O)N[C@H](C(=O)N[C@@H](CCCCN)C(=O)N[C@@H](CC(C)C)C(=O)N[C@@H](CCCCNC(=O)COCCOCCNC(=O)COCCOCCNC(=O)CC[C@H](NC(=O)CCCCCCCCCCCCCCCCC(=O)O)C(=O)O)C(=O)N[C@@H](CCCCN)C(=O)N[C@H](C(=O)N[C@@H](CC(C)C)C(=O)N[C@@H](CC(C)C)C(=O)N[C@@H](CCC(=O)O)C(=O)N[C@@H](CCC(N)=O)C(=O)N[C@@H](CCC(=O)O)C(=O)N[C@@H](CCCCN)C(=O)N[C@@H](CCC(N)=O)C(=O)N[C@@H](CCCCN)C(=O)N[C@@H](CCCCN)C(=O)N[C@@H](CCC(N)=O)C(=O)N[C@@H](CCCNC(=N)N)C(=O)N[C@@H](CCC(=O)O)C(=O)N[C@@H](CCC(N)=O)C(=O)N[C@@H](C)C(=O)N[C@@H](CCC(=O)O)C(=O)N[C@H](C(=O)N[C@@H](CC(N)=O)C(=O)N[C@@H](C)C(=O)N[C@@H](CCC(N)=O)C(=O)N[C@H](C(=O)N[C@@H](CC(C)C)C(=O)N[C@@H](C)C(=O)N[C@@H](CCC(N)=O)C(=O)N[C@H](C(N)=O)C(C)C)[C@@H](C)CC)[C@@H](C)O)[C@@H](C)CC)[C@@H](C)CC)C(C)C)C(C)C [compound 113] (H-[NMeI]VLSLD[dV]PIKLK([AEEA-AEEA-γGlu-C18 diacid])KILLEQEKQKKQREQAETNAQILAQV-NH2) | 6 | > 250 | −31 | −24 | −7 | >24 | 0 | 14.7% | 0.35 |
| CC[C@H](C)[C@H](NC(C)=O)C(=O)N[C@H](C(=O)N[C@@H](CC(C)C)C(=O)N[C@@H](CO)C(=O)N[C@@H](CC(C)C)C(=O)N[C@@H](CC(=O)O)C(=O)N[C@@H](C(=O)N1CCC[C@H]1C(=O)N[C@H](C(=O)N[C@@H](CCCCN)C(=O)N[C@@H](CC(C)C)C(=O)N[C@@H](CCCCNC(=O)CC[C@H](NC(=O)CCCCCCCCCCCCCCC(=O)O)C(=O)O)C(=O)N[C@@H](CCCCN)C(=O)N[C@H](C(=O)N[C@@H](CC(C)C)C(=O)N[C@@H](CC(C)C)C(=O)N[C@@H](CCC(=O)O)C(=O)N[C@@H](CCC(N)=O)C(=O)N[C@@H](CCC(=O)O)C(=O)N[C@@H](CCCCN)C(=O)N[C@@H](CCC(N)=O)C(=O)N[C@@H](CCCCN)C(=O)N[C@@H](CCCCN)C(=O)N[C@@H](CCC(N)=O)C(=O)N[C@@H](CCCNC(=N)N)C(=O)N[C@@H](CCC(=O)O)C(=O)N[C@@H](CCC(N)=O)C(=O)N[C@@H](C)C(=O)N[C@@H](CCC(=O)O)C(=O)N[C@H](C(=O)N[C@@H](CC(N)=O)C(=O)N[C@@H](C)C(=O)N[C@@H](CCC(N)=O)C(=O)N[C@H](C(=O)N[C@@H](CC(C)C)C(=O)N[C@@H](C)C(=O)N[C@@H](CCC(N)=O)C(=O)N[C@H](C(N)=O)C(C)C)[C@@H](C)CC)[C@@H](C)O)[C@@H](C)CC)[C@@H](C)CC)C(C)C)C(C)C [compound 47] (Ac-IVLSLD[dV]PIKLK([γGlu-C16 diacid])KILLEQEKQKKQREQAETNAQILAQV-NH2) | 10 | > 250 | −14 | −6 | 2 | 23 | 0 | 9.0% | 0.09 |
